From patent publication US8435980B2 (AbbVie Inc., priority 2009, dated 2013)
pKi: −log10 of the molar value.

Molecular target: T1, Cdc7 (BEV coexpressed huCDC7/DBF4) (Homo sapiens, UniProt O00311)
T1 construct: made in house; host or cells: BEV (baculovirus expression vector) co-expression; insect cells are implied but no cell line is named
Test: Cdc7 enzyme inhibition assay ([33P]ATP, biotinylated peptide substrate, FlashPlate)
Format: biochemical
Settings: Table 3; enzyme inhibition data (Ki)
Method: Cdc7 (BEV coexpressed huCDC7/DBF4) is prepared internally. Cdc7 assays are conducted as follows with final concentrations as listed. […] Reactions are quenched after 1 hr by the addition of 90 μL stop buffer (50 mM EDTA, 2M NaCl). […] (Ki) for exemplary compounds.

T1 sequence (O00311 whole entry): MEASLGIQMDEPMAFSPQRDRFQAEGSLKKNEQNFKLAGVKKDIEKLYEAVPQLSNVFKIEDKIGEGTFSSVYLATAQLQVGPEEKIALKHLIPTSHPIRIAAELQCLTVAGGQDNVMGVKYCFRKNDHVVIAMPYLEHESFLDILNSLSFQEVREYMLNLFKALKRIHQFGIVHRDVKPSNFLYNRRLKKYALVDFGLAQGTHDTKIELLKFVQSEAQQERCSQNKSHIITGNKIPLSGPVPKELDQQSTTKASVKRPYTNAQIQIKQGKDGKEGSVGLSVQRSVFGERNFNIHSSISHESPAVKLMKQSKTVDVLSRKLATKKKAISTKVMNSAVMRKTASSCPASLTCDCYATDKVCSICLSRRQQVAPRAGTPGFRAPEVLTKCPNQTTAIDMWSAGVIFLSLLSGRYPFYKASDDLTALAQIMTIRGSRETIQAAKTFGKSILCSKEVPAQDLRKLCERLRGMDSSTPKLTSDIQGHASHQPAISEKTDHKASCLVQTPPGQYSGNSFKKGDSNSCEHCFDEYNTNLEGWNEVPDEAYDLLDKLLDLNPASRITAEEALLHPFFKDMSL
T1 sequence (Q9UBU7 whole entry partner): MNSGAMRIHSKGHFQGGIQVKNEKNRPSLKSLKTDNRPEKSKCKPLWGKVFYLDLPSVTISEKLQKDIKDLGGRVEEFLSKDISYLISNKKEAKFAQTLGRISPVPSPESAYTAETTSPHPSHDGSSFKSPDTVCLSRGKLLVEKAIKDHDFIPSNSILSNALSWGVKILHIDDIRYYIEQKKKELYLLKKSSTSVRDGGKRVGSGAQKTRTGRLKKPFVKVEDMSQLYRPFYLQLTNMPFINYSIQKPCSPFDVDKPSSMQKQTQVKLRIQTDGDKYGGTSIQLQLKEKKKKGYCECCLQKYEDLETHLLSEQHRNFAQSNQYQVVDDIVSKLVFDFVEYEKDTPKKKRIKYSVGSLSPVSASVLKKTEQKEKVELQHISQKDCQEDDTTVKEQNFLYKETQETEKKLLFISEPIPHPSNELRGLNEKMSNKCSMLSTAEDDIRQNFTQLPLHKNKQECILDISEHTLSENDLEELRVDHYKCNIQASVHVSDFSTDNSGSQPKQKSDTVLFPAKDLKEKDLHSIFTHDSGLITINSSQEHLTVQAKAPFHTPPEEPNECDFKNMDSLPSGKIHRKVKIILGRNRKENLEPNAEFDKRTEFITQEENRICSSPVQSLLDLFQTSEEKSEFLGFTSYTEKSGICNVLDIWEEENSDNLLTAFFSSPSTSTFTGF

| Compound | pKi |
| --- | --- |
| COc1cc(Nc2cc(-c3c[nH]c4ncccc34)cc(Cl)n2)cc(OC)c1OC [Example 412, 6-chloro-4-(1H-pyrrolo[2,3-b]pyridin-3-yl)-N-(3,4,5-trimethoxyphenyl)pyridin-2-amine] | > 8.00 |
| Clc1cc(-c2c[nH]c3ncccc23)cc(Nc2ccc(-n3ccnc3)cc2)n1 [Example 413, 6-chloro-N-[4-(1H-imidazol-1-yl)phenyl]-4-(1H-pyrrolo[2,3-b]pyridin-3-yl)pyridin-2-amine] | > 8.00 |
| COc1ccc(CNc2cc(-c3c[nH]c4ncccc34)cc(Cl)n2)cc1OC [Example 414] | > 8.00 |
| OC(CNc1cc(-c2c[nH]c3ncccc23)cc(Cl)n1)c1ccccc1 (stereo not drawn) [Example 415, 2-{[6-chloro-4-(1H-pyrrolo[2,3-b]pyridin-3-yl)pyridin-2-yl]amino}-1-phenylethanol] | > 8.00 |
| Clc1cc(-c2c[nH]c3ncccc23)cc(NCCCc2ccccc2)n1 [Example 416, 6-chloro-N-(3-phenylpropyl)-4-(1H-pyrrolo[2,3-b]pyridin-3-yl)pyridin-2-amine] | > 8.00 |
| CS(=O)(=O)c1ccc(CNc2cc(-c3c[nH]c4ncccc34)cc(Cl)n2)cc1 [Example 417, 6-chloro-N-[4-(methylsulfonyl)benzyl]-4-(1H-pyrrolo[2,3-b]pyridin-3-yl)pyridin-2-amine] | > 8.00 |
| CSc1ccc(Nc2cc(-c3c[nH]c4ncccc34)cc(Cl)n2)cc1 [Example 418, 6-chloro-N-[4-(methylsulfanyl)phenyl]-4-(1H-pyrrolo[2,3-b]pyridin-3-yl)pyridin-2-amine] | > 8.00 |
| Clc1cc(-c2c[nH]c3ncccc23)cc(Nc2ccc(Oc3ccccc3)cc2)n1 [Example 419, 6-chloro-N-(4-phenoxyphenyl)-4-(1H-pyrrolo[2,3-b]pyridin-3-yl)pyridin-2-amine] | > 8.00 |
| Clc1cc(-c2c[nH]c3ncccc23)cc(Nc2ccc(N3CCCCC3)cc2)n1 [Example 420, 6-chloro-N-[4-(piperidin-1-yl)phenyl]-4-(1H-pyrrolo[2,3-b]pyridin-3-yl)pyridin-2-amine] | > 8.00 |
| COC(=O)c1cnc2[nH]cc(-c3cc(Cl)nc(NC4CCCCC4)c3)c2c1 [Example 421, methyl 3-[2-chloro-6-(cyclohexylamino)pyridin-4-yl]-1H-pyrrolo[2,3-b]pyridine-5-carboxylate] | > 8.00 |
| O=C(CN1CCN(CCO)CC1)N[C@H]1CC[C@H](Nc2cc(-c3c[nH]c4ncccc34)cc(Cl)n2)CC1 [Example 422, N-(trans-4-{[6-chloro-4-(1H-pyrrolo[2,3-b]pyridin-3-yl)pyridin-2-yl]amino}cyclohexyl)-2-[4-(2-hydroxyethyl)piperazin-1-yl]acetamide] | > 8.00 |
| Cc1cccc(C)c1N1CCN(CC(=O)N[C@H]2CC[C@H](Nc3cc(-c4c[nH]c5ncccc45)cc(Cl)n3)CC2)CC1 [Example 423, N-(trans-4-{[6-chloro-4-(1H-pyrrolo[2,3-b]pyridin-3-yl)pyridin-2-yl]amino}cyclohexyl)-2-[4-(2,6-dimethylphenyl)piperazin-1-yl]acetamide] | > 8.00 |
| COc1cnc2[nH]cc(-c3cc(Cl)nc(NC4CCC(CC5CCC(NC6CCC6)CC5)CC4)c3)c2c1 (stereo not drawn) [Example 424, 6-chloro-N-(4-{[4-(cyclobutylamino)cyclohexyl]methyl}cyclohexyl)-4-(5-methoxy-1H-pyrrolo[2,3-b]pyridin-3-yl)pyridin-2-amine] | > 8.00 |
| CCC(CC)NC1CCC(CC2CCC(Nc3cc(-c4c[nH]c5ncc(OC)cc45)cc(Cl)n3)CC2)CC1 (stereo not drawn) [Example 425, 6-chloro-4-(5-methoxy-1H-pyrrolo[2,3-b]pyridin-3-yl)-N-(4-{[4-(pentan-3-ylamino)cyclohexyl]methyl}cyclohexyl)pyridin-2-amine] | > 8.00 |
| COc1cnc2[nH]cc(-c3cc(Cl)nc(NC4CCC(CC5CCC(NCC6CCCC6)CC5)CC4)c3)c2c1 (stereo not drawn) [Example 426, 6-chloro-N-[4-({4-[(cyclopentylmethyl)amino]cyclohexyl}methyl)cyclohexyl]-4-(5-methoxy-1H-pyrrolo[2,3-b]pyridin-3-yl)pyridin-2-amine] | > 8.00 |
